Results as given in ChEMBL document CHEMBL1141677, “Synthesis and structure-antibacterial activity of triazolyl oxazolidinones containing long chain acyl moiety” (2008).
≈ marks a conversion by molar mass, not a printed value.

Columns and labels:
Assay type in all cases: functional
[1] = tested on: Staphylococcus aureus; test: Antibacterial activity against Staphylococcus aureus ATCC 25923 after 18 hrs by agar dilution method; details: for MIC: Staphylococcus aureus, ATCC 25923, 18 h
[2] = tested on: Enterococcus; test: Antibacterial activity against vancomycin-sensitive Enterococcus after 18 hrs by agar dilution method
[3] = tested on: Escherichia coli; test: Antibacterial activity against Escherichia coli ATCC 25922 after 18 hrs by agar dilution method; details: ATCC 25922, 18 h
[4] = tested on: Staphylococcus aureus; test: Antibacterial activity against Staphylococcus aureus ATCC 25923 after 18 hrs by agar dilution method in presence of 50% human plasma; details: ATCC 25923, Plasma
[5] = tested on: Streptococcus pneumoniae; test: Antibacterial activity against penicillin-resistant Streptococcus pneumoniae after 18 hrs by agar dilution method
[6] = tested on: Staphylococcus aureus; test: Antibacterial activity against methicillin-susceptible Staphylococcus aureus clinical isolate after 18 hrs by agar dilution method
[7] = tested on: Staphylococcus; test: Antibacterial activity against methicillin-susceptible coagulase-negative Staphylococcus clinical isolate after 18 hrs by agar dilution method
[8] = tested on: Moraxella catarrhalis; test: Antibacterial activity against Moraxella catarrhalis clinical isolate after 18 hrs by agar dilution method
[9] = tested on: Haemophilus influenzae; test: Antibacterial activity against Haemophilus influenzae clinical isolate after 18 hrs by agar dilution method
[10] = tested on: Staphylococcus; test: Antibacterial activity against methicillin-resistant coagulase-negative Staphylococcus clinical isolate after 18 hrs by agar dilution method
[11] = tested on: Enterococcus; test: Antibacterial activity against vancomycin-resistant Enterococcus after 18 hrs by agar dilution method
[12] = tested on: Staphylococcus aureus; test: Antibacterial activity against methicillin-resistant Staphylococcus aureus clinical isolate after 18 hrs by agar dilution method; details: for MIC: Staphylococcus aureus, 18 h

CCCCCCCCCCCCCCCCCC(=O)N1CCN(c2ccc(N3C[C@H](Cn4ccnn4)OC3=O)cc2F)CC1
-logMIC [1]: 1.58
MIC [1]: > 16 µg/mL
MIC [2]: > 16 µg/mL
MIC [3]: ≥ 8 µg/mL
MIC [4]: > 16 µg/mL
MIC [5]: > 16 µg/mL
MIC [6]: > 16 µg/mL
MIC [7]: > 16 µg/mL
MIC [8]: ≥ 8 µg/mL
MIC [9]: ≥ 8 µg/mL

CCCCCCCCCCCCCCCC(=O)N1CCN(c2ccc(N3C[C@H](Cn4ccnn4)OC3=O)cc2F)CC1
-logMIC [1]: 1.56
MIC [1]: > 16 µg/mL
MIC [2]: > 16 µg/mL
MIC [3]: ≥ 8 µg/mL
MIC [4]: > 16 µg/mL
MIC [5]: > 16 µg/mL
MIC [6]: > 16 µg/mL
MIC [7]: > 16 µg/mL
MIC [8]: ≥ 8 µg/mL
MIC [9]: ≥ 8 µg/mL

CCCCCCCCCC(=O)N1CCN(c2ccc(N3C[C@H](Cn4ccnn4)OC3=O)cc2F)CC1
-logMIC [1]: 1.5
MIC [1]: > 16 µg/mL
MIC [2]: > 16 µg/mL
MIC [3]: ≥ 8 µg/mL
MIC [4]: > 16 µg/mL
MIC [5]: > 16 µg/mL
MIC [6]: > 16 µg/mL
MIC [7]: > 16 µg/mL
MIC [8]: ≥ 8 µg/mL
MIC [9]: ≥ 8 µg/mL

O=C(C1CCCC1)N1CCN(c2ccc(N3C[C@H](Cn4ccnn4)OC3=O)cc2F)CC1
-logMIC [1]: 2.34
MIC [1]: 2 µg/mL (≈ 4.52 µM)
MIC [2]: 1 µg/mL (≈ 2.26 µM)
MIC [10]: 1 µg/mL (≈ 2.26 µM)
MIC [3]: ≥ 8 µg/mL
MIC [4]: 4 µg/mL
MIC [5]: 1 µg/mL (≈ 2.26 µM)
MIC [6]: 1 µg/mL (≈ 2.26 µM)
MIC [11]: 1 µg/mL (≈ 2.26 µM)
-logMIC [12]: 2.65
MIC [12]: 1 µg/mL (≈ 2.26 µM)
MIC [7]: 1 µg/mL (≈ 2.26 µM)
MIC [8]: ≥ 8 µg/mL
MIC [9]: ≥ 8 µg/mL

CCCCCCCCC(=O)N1CCN(c2ccc(N3C[C@H](Cn4ccnn4)OC3=O)cc2F)CC1
-logMIC [1]: 1.78
MIC [1]: > 16 µg/mL
MIC [2]: 8 µg/mL (≈ 16.4 µM)
MIC [10]: 4 µg/mL (≈ 8.22 µM)
MIC [3]: ≥ 8 µg/mL
MIC [4]: > 16 µg/mL
MIC [5]: > 16 µg/mL
MIC [6]: 8 µg/mL (≈ 16.4 µM)
MIC [11]: 8 µg/mL (≈ 16.4 µM)
-logMIC [12]: 2.09
MIC [12]: 4 µg/mL (≈ 8.22 µM)
MIC [7]: 4 µg/mL (≈ 8.22 µM)
MIC [8]: ≥ 8 µg/mL
MIC [9]: ≥ 8 µg/mL

CCCCCC(=O)N1CCN(c2ccc(N3C[C@H](Cn4ccnn4)OC3=O)cc2F)CC1
-logMIC [1]: 2.05
MIC [1]: 4 µg/mL (≈ 9 µM)
MIC [2]: 4 µg/mL (≈ 9 µM)
MIC [10]: 1 µg/mL (≈ 2.25 µM)
MIC [3]: ≥ 8 µg/mL
MIC [4]: > 16 µg/mL
MIC [5]: 2 µg/mL (≈ 4.5 µM)
MIC [6]: 4 µg/mL (≈ 9 µM)
MIC [11]: 4 µg/mL (≈ 9 µM)
-logMIC [12]: 2.35
MIC [12]: 2 µg/mL (≈ 4.5 µM)
MIC [7]: 1 µg/mL (≈ 2.25 µM)
MIC [8]: ≥ 8 µg/mL
MIC [9]: ≥ 8 µg/mL

CCCCCCCCCCCCCC(=O)N1CCN(c2ccc(N3C[C@H](Cn4ccnn4)OC3=O)cc2F)CC1
-logMIC [1]: 1.54
MIC [1]: > 16 µg/mL
MIC [2]: > 16 µg/mL
MIC [3]: ≥ 8 µg/mL
MIC [4]: > 16 µg/mL
MIC [5]: > 16 µg/mL
MIC [6]: > 16 µg/mL
MIC [7]: > 16 µg/mL
MIC [8]: ≥ 8 µg/mL
MIC [9]: ≥ 8 µg/mL

CC(=O)NC[C@H]1CN(c2ccc(N3CCOCC3)c(F)c2)C(=O)O1 [LINEZOLID]
MIC [2]: 0.5 µg/mL (≈ 1.48 µM)
MIC [10]: 1 µg/mL (≈ 2.96 µM)
MIC [3]: ≥ 8 µg/mL
MIC [6]: 1 µg/mL (≈ 2.96 µM)
MIC [11]: 2 µg/mL (≈ 5.93 µM)
MIC [12]: 0.5 µg/mL (≈ 1.48 µM)
MIC [7]: 0.25 µg/mL (≈ 0.741 µM)
MIC [8]: ≥ 8 µg/mL
MIC [9]: ≥ 8 µg/mL

CN[C@H](CC(C)C)C(=O)N[C@H]1C(=O)N[C@@H](CC(N)=O)C(=O)N[C@H]2C(=O)N[C@H]3C(=O)N[C@H](C(=O)N[C@H](C(=O)O)c4cc(O)cc(O)c4-c4cc3ccc4O)[C@H](O)c3ccc(c(Cl)c3)Oc3cc2cc(c3O[C@@H]2O[C@H](CO)[C@@H](O)[C@H](O)[C@H]2O[C@H]2C[C@](C)(N)[C@H](O)[C@H](C)O2)Oc2ccc(cc2Cl)[C@H]1O [VANCOMYCIN]
MIC [2]: 0.25 µg/mL (≈ 0.173 µM)
MIC [10]: 1 µg/mL (≈ 0.69 µM)
MIC [3]: ≥ 8 µg/mL
MIC [5]: 0.5 µg/mL (≈ 0.345 µM)
MIC [11]: > 64 µg/mL
MIC [7]: 1 µg/mL (≈ 0.69 µM)
MIC [8]: ≥ 8 µg/mL
MIC [9]: ≥ 8 µg/mL
